Reference: patent US5032597A, “Method of using phenylquinolinecarboxylic acids and derivatives for lymthoid leukemia treatment in a mammal” (priority 1987, dated 1991)
Converted amounts (≈) assume the structure as drawn. Structures can show the parent of a compound that is named as a salt. Where two headings read alike, the source gives them in different places.

Columns and labels:
[1] = system: L1210 leukemia; experiment: Lymphoid Leukemia L1210, survival of tumored mice; assay type: in vivo, CD2F1 mice; conditions: for response vs control in vivo at 50 mg/kg: 50 mg/kg i.p.; for response vs control in vivo at 75 mg/kg: 75 mg/kg i.p.; for response vs control in vivo at 200 mg/kg: 200 mg/kg i.p.; for response vs control in vivo at 100 mg/kg: 100 mg/kg i.p.; for response vs control in vivo at 300 mg/kg: 300 mg/kg i.p.; for response vs control in vivo at 400 mg/kg: 400 mg/kg i.p.
Outline: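 Male CD2 F1 mice, six per group, received 10^5 L1210 cells i.p. on day 0. Compounds in hydroxypropylcellulose, saline/Tween 80 or saline were given i.p. at various doses once daily on days 1-9, with vehicle controls.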

[2] = system: human colon carcinoma cells HCT-15; experiment: Human colon tumor test in vitro, HCT-15 cell growth inhibition; assay type: cell-based; conditions: for IC50: Homo sapiens, HCT-15, 72 h, read-out: in vitro HCT-15 ID50 (50 percent inhibition of number of doublings); for in vitro HCT-15 ID50 (50 percent inhibition of number of doublings): 4320 min
Description: The compound of this invention were also tested for their ability to inhibit the growth of human colon carcinoma cells in vitro.
The human colon carcinoma cells, designated HCT-15, were derived from a specimen of an adenocarcinoma of human colon removed during surgery. The cells were grown in Roswell Park Medical Institute (RPMI) Medium 1640 supplemented with 10% heat inactivated fetal calf serum, penicillin (100 units/ml), streptomycin (100 μg/ml), gentamicin (20 μg/ml), fungizone (25 μg/ml), 0.075 percent sodium bicarbonate, […] 4-(2-hydroxyethyl)-1-piperazineethanesulfonic acid and […] N-tris(hydroxymethyl)methylglycine. […] On day 1 cells from sample dishes were harvested using trypsin (0.25%) treatment and counted with a hemocytometer to determine the number of cells per dish at the time of the addition of the compounds. Compounds of this invention were added in varying concentrations to other cultures. On day 4, treated and control cultures were harvested by trypsin treatment and the number of cells was determined. The number of doublings for the control cells was determined from the cell numbers on days 1 and 4. The ID50, the concentration of compound required to inhibit by 50 percent the number of doublings, was then calculated from the dose-response curve in which cell numbers were plotted on log-log paper against compound concentrations in micrograms per ml.

[3] = Mus musculus, L1210, ip, 720 h, nonoptimal Q1DX9 instead of Q3DX9, read-out: L1210 Leukemia % T/C (median survival time)
[4] = HCT-15 cells, compound day 1 to day 4
[5] = Mus musculus, L1210, ip, 720 h, read-out: L1210 Leukemia % T/C (median survival time)

## Cc1c(-c2ccc(-c3ccccc3F)cc2)nc2ccc(F)cc2c1C(=O)[O-].[Na+] [Example 118, Sodium 2-(2'-Fluoro-1,1'-biphenyl-4-yl)-6-fluoro-3-methylquinoline-4-carboxylate]
[1]; Mus musculus, L1210, ip, 720 h, read-out: L1210 Leukemia % T/C (median survival time), 25 mg/kg i.p.
  response vs control in vivo at 25 mg/kg: 179%
[2]
  IC50: 0.017 µg/mL

## COc1ccc(-c2ccc(-c3nc4ccc(Cl)cc4c(C(=O)O)c3C)cc2)cc1 [Example 114]
[1]; [3]
  response vs control in vivo at 50 mg/kg: 121%
[2]; [4]
  in vitro HCT-15 ID50 (50 percent inhibition of number of doublings): 1.30 µg/mL

## Cc1c(-c2ccc(-c3ccccc3F)cc2)nc2ccc(F)cc2c1C(=O)O [Example 28, 2-(2'-Fluoro-1,1'-biphenyl-4-yl)-6-fluoro-3-methyl4-quinolinecarboxylic acid]
[1]; Mus musculus, L1210, ip, 720 h, 18 mg/kg i.p., read-out: L1210 Leukemia % T/C (median survival time)
  response vs control in vivo at 18 mg/kg: 174%
[2]; [4]
  IC50: < 0.5 µg/mL

## Cc1c(-c2ccc(Oc3ccc(Cl)cc3)cc2)nc2ccc(F)cc2c1C(=O)O [Example 119]
[1]; 18 mg/kg i.p.
  L1210 Leukemia % T/C (median survival time): 170%
[2]; [4]
  in vitro HCT-15 ID50 (50 percent inhibition of number of doublings): < 0.50 µg/mL

## Cc1c(-c2ccc(-c3ccccc3F)cc2)nc2ccc(F)cc2c1C(=O)OCCN(C)C [Example 197, 6-Fluoro-2-(2'-fluoro-1,1'-biphenyl-4-yl)-3-methyl-[(2dimethylamino)ethyl]ester-4-quinolinecarboxylic acid]
[1]; [5]
  response vs control in vivo at 50 mg/kg: 179%
[2]; [4]
  in vitro HCT-15 ID50 (50 percent inhibition of number of doublings): < 0.01 µg/mL

## CCc1ccc(-c2ccc(-c3nc4ccc(F)cc4c(C(=O)O)c3C)cc2)cc1 [Example 130]
[1]; [5]
  response vs control in vivo at 50 mg/kg: 132%
[2]; [4]
  in vitro HCT-15 ID50 (50 percent inhibition of number of doublings): > 1.0 µg/mL

## Cc1ccc2c(C(=O)O)c(C)c(-c3ccc(-c4ccccc4)cc3)nc2c1 [Example 145]
[1]; [5]
  response vs control in vivo at 75 mg/kg: 132%
[2]; [4]
  IC50: < 0.5 µg/mL

## Cc1c(-c2ccc(Sc3ccccc3)cc2)nc2ccc(Cl)cc2c1C(=O)O [Example 173]
[1]; Mus musculus, L1210, ip, 720 h, 25 mg/kg i.p., nonoptimal Q1DX9 instead of Q3DX9, read-out: L1210 Leukemia % T/C (median survival time)
  response vs control in vivo at 25 mg/kg: 122%
[2]; [4]
  in vitro HCT-15 ID50 (50 percent inhibition of number of doublings): < 0.50 µg/mL

## Cc1c(-c2ccc(-c3ccc(F)cc3F)cc2)nc2ccc(F)cc2c1C(=O)O [Example 188]
[1]; Mus musculus, L1210, ip, 720 h, 12.5 mg/kg i.p., read-out: L1210 Leukemia % T/C (median survival time)
  response vs control in vivo at 12.5 mg/kg: 187%
[2]; [4]
  IC50: < 0.01 µg/mL

## O=C(O)c1cc(-c2ccc(C3CCCCC3)cc2)nc2ccc(Cl)cc12 [Example 4]
[1]; [5]
  response vs control in vivo at 200 mg/kg: 128%
[2]; [4]
  IC50: 0.48 µg/mL (≈ 1.31 µM)

## O=C(O)c1cc(-c2ccc(Oc3ccc(F)cc3)cc2)nc2ccc(F)cc12 [Example 187]
[1]; [5]
  response vs control in vivo at 75 mg/kg: 131%
[2]; [4]
  IC50: < 0.5 µg/mL

## CCC(C)c1ccc(-c2nc3ccc(F)cc3c(C(=O)O)c2C)cc1 (centres unmarked) [Example 9]
[1]; [5]
  response vs control in vivo at 200 mg/kg: 127%
[2]; [4]
  in vitro HCT-15 ID50 (50 percent inhibition of number of doublings): 0.07 µg/mL

## Cc1c(-c2ccc(-c3ccccc3)c(F)c2)nc2ccc(F)cc2c1C(=O)O [Example 210]
[1]; 25 mg/kg i.p.
  L1210 Leukemia % T/C (median survival time): 177%
[2]; [4]
  in vitro HCT-15 ID50 (50 percent inhibition of number of doublings): .03 µg/mL

## Cc1c(-c2ccc(C3CCCCC3)cc2)nc2ccc(F)cc2c1C(=O)O [Example 181]
[1]; Mus musculus, L1210, ip, 720 h, 37.5 mg/kg i.p., nonoptimal Q1DX9 instead of Q3DX9, read-out: L1210 Leukemia % T/C (median survival time)
  response vs control in vivo at 37.5 mg/kg: 108%
[2]; [4]
  in vitro HCT-15 ID50 (50 percent inhibition of number of doublings): < 0.50 µg/mL

## Cc1c(-c2ccc(Oc3ccccc3)cc2)nc2cc(Cl)ccc2c1C(=O)O [Example 50]
[1]; [5]
  response vs control in vivo at 100 mg/kg: 131%
[2]; [4]
  IC50: > 5 µg/mL

## Cc1c(-c2ccc(-c3ccc(F)cc3)cc2)nc2cc(Cl)c(F)cc2c1C(=O)O [Example 54]
[1]; [5]
  response vs control in vivo at 300 mg/kg: 125%
[2]; [4]
  IC50: < 0.5 µg/mL

## Cc1c(-c2ccc(-c3ccccc3)cc2)nc2cc(Cl)cc(Cl)c2c1C(=O)O [Example 82]
[1]; [5]
  response vs control in vivo at 100 mg/kg: 144%
[2]; [4]
  IC50: > 1 µg/mL

## Cc1c(-c2ccc(-c3ccc(Br)cc3)cc2)nc2ccc(F)cc2c1C(=O)O [Example 12]
[1]; [5]
  response vs control in vivo at 50 mg/kg: 261%
[2]; [4]
  IC50: 1 µg/mL (≈ 2.29 µM)

## O=C(O)c1cc(-c2ccc(C3CCCCC3)cc2)nc2ccc(Cl)cc12 [Example 94]
[1]; [3]
  response vs control in vivo at 100 mg/kg: 107%
[2]; [4]
  in vitro HCT-15 ID50 (50 percent inhibition of number of doublings): 0.65 µg/mL

## CCCCCCc1ccc(-c2nc3ccc(F)cc3c(C(=O)O)c2C)cc1 [Example 8]
[1]; [5]
  response vs control in vivo at 400 mg/kg: 147%
[2]; [4]
  IC50: 0.4 µg/mL (≈ 1.09 µM)

## Cc1c(-c2ccc(-c3ccccc3)cc2)nc2ccc(Cl)cc2c1C(=O)O [Example 109]
[1]; [5]
  response vs control in vivo at 100 mg/kg: 172%
[2]; [4]
  in vitro HCT-15 ID50 (50 percent inhibition of number of doublings): < 0.50 µg/mL

## Cc1c(-c2ccc(-c3ccccc3)cc2)nc2c(Br)cc(Br)cc2c1C(=O)O [Example 60]
[1]; [5]
  response vs control in vivo at 300 mg/kg: 192%
[2]; [4]
  IC50: < 0.5 µg/mL

## COc1ccc(-c2ccc(-c3nc4ccc(Cl)cc4c(C(=O)O)c3C)cc2)cc1 [Example 24]
[1]; [5]
  response vs control in vivo at 400 mg/kg: 154%
[2]; [4]
  in vitro HCT-15 ID50 (50 percent inhibition of number of doublings): 0.28 µg/mL

## Cc1c(-c2ccc(-c3ccc(F)cc3)cc2)nc2ccc(F)cc2c1C(=O)O [Example 31]
[1]; 37.5 mg/kg i.p.
  L1210 Leukemia % T/C (median survival time): 218%
[2]; [4]
  IC50: < 0.5 µg/mL

## Cc1c(-c2ccc(C3CCCCC3)cc2)nc2ccc(Cl)cc2c1C(=O)O [Example 3]
[1]; [5]
  response vs control in vivo at 400 mg/kg: 207%
[2]; [4]
  in vitro HCT-15 ID50 (50 percent inhibition of number of doublings): 0.50 µg/mL

## Cc1c(-c2ccc(-c3ccccc3)cc2)nc2cc(Cl)ccc2c1C(=O)O [Example 49]
[1]; [5]
  response vs control in vivo at 200 mg/kg: 174%
[2]; [4]
  IC50: > 5 µg/mL

## CCc1c(-c2ccc(C3CCCCC3)cc2)nc2ccc(C)cc2c1C(=O)O [Example 15]
[1]; [5]
  response vs control in vivo at 200 mg/kg: 158%
[2]; [4]
  IC50: 0.28 µg/mL (≈ 0.75 µM)

## Cc1c(-c2ccc(Sc3ccccc3)cc2)nc2ccc(Cl)cc2c1C(=O)O [Example 111]
[1]; Mus musculus, L1210, ip, 720 h, 25 mg/kg i.p., read-out: L1210 Leukemia % T/C (median survival time)
  response vs control in vivo at 25 mg/kg: 125%
[2]; [4]
  IC50: < 0.5 µg/mL

## Cc1cc2c(C(=O)O)c(C)c(-c3ccc(Oc4ccccc4)cc3)nc2cc1Cl [Example 59]
[1]; [5]
  response vs control in vivo at 300 mg/kg: 152%
[2]; [4]
  IC50: > 5 µg/mL

## Cc1c(-c2ccc(-c3ccccc3F)cc2)nc2ccc(F)cc2c1C(=O)OCCN(C)C [Example 198, [6-Fluoro-2-(2'-fluoro-1,1'-biphenyl-4-yl)3-methyl-[(2-dimethylamino)ethyl]ester-4-quinolinecarboxylic acid] hydrochloride]
[1]; [5]
  response vs control in vivo at 100 mg/kg: 178%
[2]; HCT-15 cells, compound day 1 to day 4, hydrochloride
  in vitro HCT-15 ID50 (50 percent inhibition of number of doublings): < 10^-3 μg/ml

## Cc1c(-c2ccc(Oc3ccccc3)cc2)nc2ccc(F)cc2c1C(=O)O [Example 101]
[1]; [5]
  response vs control in vivo at 50 mg/kg: 154%
[2]; [4]
  in vitro HCT-15 ID50 (50 percent inhibition of number of doublings): 0.41 µg/mL

## CCc1ccc(-c2ccc(-c3nc4ccc(F)cc4c(C(=O)O)c3C)cc2)cc1 [Example 40]
[1]; [5]
  response vs control in vivo at 100 mg/kg: 157%
[2]; [4]
  IC50: > 1 µg/mL

## O=C(O)c1cc(-c2ccc(-c3ccccc3)cc2)nc2ccc(F)cc12 [Example 33]
[1]; [5]
  response vs control in vivo at 200 mg/kg: 170%
[2]; [4]
  IC50: < 0.5 µg/mL

## O=C(O)c1cc(-c2ccc(C3CCCCC3)cc2)nc2ccc(F)cc12 [Example 95]
[1]; [3]
  response vs control in vivo at 100 mg/kg: 108%
[2]; [4]
  in vitro HCT-15 ID50 (50 percent inhibition of number of doublings): 0.04 µg/mL
